According to patent US20160184230A1, “MELT-PROCESSED POLYMERIC CELLULAR DOSAGE FORM” (priority 2014, published 2016):

Assay: Compression tests of solid excipient (ASTM D695-10)
Format: physicochemical
Conditions: compression-molded sample
Experimental: Compression tests were performed on pure PEG and PEO specimen. The ASTM standard test method for compressive properties of rigid plastics, ASTM D695-10, was used as the protocol to execute compression tests. The testing machine was a Zwick Roell Z2.5 with a 2.5 kN load cell (Zwick GmbH & Co. KG, Ulm, Germany), equipped with compression platens. A speed of 1.3 mm/min was applied for the platens to move relatively towards each other.

In the case of OC[C@@H](O)[C@@H](O)[C@H](O)[C@H](O)CO [Mannitol], the Compressive strength is reported as 0.8 MPa and the Strain at fracture is reported as <0.02.
